Test: Cyclic voltammetry, redox potentials
Format: physicochemical
Details: dichloromethane at 22° C. versus Fc
Source text: Without being bound by theory, it is believed that the observed photochemical reaction with long wavelength light is not the result of intramolecular energy transfer from the porphyrin to the pyrazoline because estimations indicate that it would be an extremely endothermic process. With respect to the possibility that a photoinduced electron transfer may be responsible, it is first noted that there is no precedence for this reaction with pyrazolines. If the porphyrin and pyrazoline are considered as separate molecules, however, the estimation of the feasibility of an electron transfer process may be conducted as follows. Generally, a photochemical electron transfer occurs only when it is exergonic or <5 kcal mol^−1 endergonic (Eberson, L. Electron Transfer Reactions in Organic Chemistry, Springer-Verlag: Berlin Germany, 1987). The free energy change for a photoinduced electron transfer can be determined from the oxidation potential of the electron donor (E°D), the reduction potential of the electron acceptor (E°A) and the excited state energy of the sensitizer (E0,0), using the relationship ΔGET=23.06 kcal mol^−1[(E°D−E°A)−E0,0]−C; where C is a term that accounts for solvation. In order to estimate the feasibility of electron transfer using this relationship, the redox properties of the molecules must be known. The starting materials MePPP (18), the pyrazoline (19), and the photoproduct cyclopropane (20) have reduction and oxidation potentials as shown in Table 2.
The radical anions and dianions are therefore stable on the time scale of these experiments, with no chemistry occurring on addition of electrons to these molecules. If any chemical reactions were occurring from the radical anion or dianion, the CV's would be irreversible. […] On reduction, two consecutive electrons are accepted by the porphyrin macrocycle in each of 18, 19 and 20. The oxidations are also reversible; the only notable feature of the oxidation potentials is that 19 and 20 are somewhat easier to oxidize than MePPP. […]

C=Cc1c(C)c2cc3nc(c4c5[nH]c(cc6nc(cc1[nH]2)C(C)=C6CC)c(C)c5C(=O)C4)C(CCC(=O)OC)C3C (stereo not drawn) [Compound 18, Methylpyropheophorbide]
Oxidation 1 (redox potential): 0.61 | Reduction 1 (redox potential): −1.47 | Reduction 2 (redox potential): −1.73
